Reference: patent US12084451B2, “Compositions and methods for reducing tactile dysfunction, anxiety, and social impairment” (President and Fellows of Harvard College, priority 2018, dated 2024)
Several values for one entry are separate records, joined by “and”; a condition that tells them apart may be missing. Equal entries are not always repeated.

What was measured:
hGABAA α2β3γ2 = hGABAA α2β3γ2 (Homo sapiens, UniProt P18507+P28472+P47869); test: hGABAA IonFlux HT PAM Assay, α2β3γ2; type: cell-based
Chain of hGABAA α2β3γ2 (P47869 29-451): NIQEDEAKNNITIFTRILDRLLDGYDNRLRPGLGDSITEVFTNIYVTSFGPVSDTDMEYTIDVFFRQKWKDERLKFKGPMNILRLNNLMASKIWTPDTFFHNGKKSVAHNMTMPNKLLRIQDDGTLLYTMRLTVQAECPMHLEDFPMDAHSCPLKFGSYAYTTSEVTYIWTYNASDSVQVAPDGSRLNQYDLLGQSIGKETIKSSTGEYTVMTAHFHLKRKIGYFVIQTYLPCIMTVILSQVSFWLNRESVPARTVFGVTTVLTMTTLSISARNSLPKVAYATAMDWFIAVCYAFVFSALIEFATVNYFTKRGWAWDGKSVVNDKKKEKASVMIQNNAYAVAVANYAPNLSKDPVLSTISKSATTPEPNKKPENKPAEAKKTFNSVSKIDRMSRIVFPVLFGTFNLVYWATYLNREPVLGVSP
Chain of hGABAA α2β3γ2 (P28472 26-473): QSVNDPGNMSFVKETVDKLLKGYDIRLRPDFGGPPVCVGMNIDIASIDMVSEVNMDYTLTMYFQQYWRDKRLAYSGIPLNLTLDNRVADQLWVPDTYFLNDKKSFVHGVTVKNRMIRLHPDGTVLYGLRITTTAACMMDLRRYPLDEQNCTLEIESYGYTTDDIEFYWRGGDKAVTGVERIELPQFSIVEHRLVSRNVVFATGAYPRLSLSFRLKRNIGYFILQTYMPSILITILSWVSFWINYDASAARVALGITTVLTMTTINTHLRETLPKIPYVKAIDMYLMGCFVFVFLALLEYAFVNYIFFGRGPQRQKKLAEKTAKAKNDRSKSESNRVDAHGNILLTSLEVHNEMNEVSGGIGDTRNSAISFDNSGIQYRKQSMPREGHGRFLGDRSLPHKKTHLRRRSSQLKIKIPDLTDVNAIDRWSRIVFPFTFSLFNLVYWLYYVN
Chain of hGABAA α2β3γ2 (P18507 40-475): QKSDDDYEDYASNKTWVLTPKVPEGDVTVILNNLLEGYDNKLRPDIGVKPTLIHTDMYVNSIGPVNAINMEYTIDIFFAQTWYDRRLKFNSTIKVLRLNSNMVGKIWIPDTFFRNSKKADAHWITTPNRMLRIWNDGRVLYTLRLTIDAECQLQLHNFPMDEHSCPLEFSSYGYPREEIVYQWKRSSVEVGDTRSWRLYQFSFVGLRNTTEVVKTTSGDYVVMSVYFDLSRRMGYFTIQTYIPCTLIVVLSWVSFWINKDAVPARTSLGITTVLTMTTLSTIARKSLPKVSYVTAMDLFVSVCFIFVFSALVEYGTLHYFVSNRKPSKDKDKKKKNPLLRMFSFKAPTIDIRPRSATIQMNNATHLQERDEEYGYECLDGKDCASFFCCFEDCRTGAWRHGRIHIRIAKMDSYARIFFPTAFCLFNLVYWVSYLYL
From the text: Ligand-gated ion channels targeted were hGABAA α1β3γ2 and hGABAA α2β3γ2.
Electrophysiological assays conducted to profile nine (9) compounds for activities on the on channel targets listed above for Positive Allosteric Modulator (PAM) activities using the IonFlux HT electrophysiological platform.
The parameters measured are described in the Data Analysis section. […] Open circles represent data that has been excluded from the curve fitting. Where no curve fit was possible, n/c (not calculable) is listed.
All wells included a final DMSO concentration of 0.33% including all control wells.
All recordings were obtained from a holding potential of −60 mV. The compound addition sequence that was used for all additions was the same for all assays. […] The process was repeated with the next ascending concentration of test compound (FIG. 1).
All data were first exported to an Excel compatible data file and then analyzed using Graph Pad Prism software.

hGABAA α1β3γ2 = hGABAA α1β3γ2 (Homo sapiens, UniProt P14867+P18507+P28472); test: hGABAA α1β3γ2 IonFlux HT Agonist Assay; type: cell-based; conditions: for Normalized Percentage Activation Mean: normalized to EC100 GABA (30 μM)
Chain of hGABAA α1β3γ2 (P14867 28-456): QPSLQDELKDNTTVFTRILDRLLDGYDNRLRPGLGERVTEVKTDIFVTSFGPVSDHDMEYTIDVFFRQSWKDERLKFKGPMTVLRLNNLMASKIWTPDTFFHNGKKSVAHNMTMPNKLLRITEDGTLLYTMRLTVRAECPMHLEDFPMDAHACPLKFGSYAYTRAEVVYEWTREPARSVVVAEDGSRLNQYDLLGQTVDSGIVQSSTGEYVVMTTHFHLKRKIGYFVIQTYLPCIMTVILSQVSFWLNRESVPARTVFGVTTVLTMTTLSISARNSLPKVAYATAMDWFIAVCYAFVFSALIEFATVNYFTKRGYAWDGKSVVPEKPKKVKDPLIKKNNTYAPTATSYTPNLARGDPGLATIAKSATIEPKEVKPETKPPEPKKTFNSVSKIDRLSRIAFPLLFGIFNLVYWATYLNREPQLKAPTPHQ
Chain of hGABAA α1β3γ2 (P28472 26-473): as the sequence (P28472 26-473) above
Chain of hGABAA α1β3γ2 (P18507 40-475): as the sequence (P18507 40-475) above
Protocol: Ligand-gated ion channel targets were hGABAA α2β3γ2 and hGABAA α1β3γ2. Electrophysiological assays conducted to profile two compounds for agonist activities on hGABAA α2β3γ2 and seven compounds for agonist activities on hGABAA α1β3γ2 using the IonFlux HT electrophysiological platform.
The parameters measured are described in the Data Analysis section. […] Note: The test compounds was applied over two (2) ‘experimental patterns’ in increasing concentrations.
The supplied compound was prepared in DMSO to concentrations that were 300× the final assay concentrations. Aliquots were taken out and diluted 300× into external buffer to give the final assay concentration. At wells included a final DMSO concentration of 0.33% including all control wets.
All recordings were obtained from a holding potential of −60 mV. The compound addition sequence that was used for all additions was the same for all assays. […] Each test concentration of compound was applied for 2 seconds followed by 60 seconds wash. The process was repeated with the next ascending concentration of test compound. The test compounds were applied over two (2) ‘experimental patterns’ in increasing concentrations (FIG. 11).
AM data were first exported to an Excel compatible data file and then analyzed using Graph Pad Prism software.

SNL rats = test: Rat spinal nerve ligation (SNL) model of neuropathic pain, Von frey test; type: in vivo, SD Rat; conditions: 5 mpk IP; for Von frey test 50% g Threshold, group mean: N 8
Protocol: Chung surgery were conducted on anesthetized rats. Rats were habituated in the testing environment for 15 minutes before allodynia measurement (2-3 times). Pre-dose baseline were taken on day 9 post surgery. Rats that don't show allodynic response at this point were excluded. SNL rats with a paw withdrawal threshold >4 g. The animals were grouped according to 50% paw withdrawal threshold (g) and weight. The animals were dosed test articles and vehicle according to the dose protocol. On the testing day (Day 9), rats were dosed with testing articles with 16 min interval between groups. Rats were measured for allodynic response at 0.75, 1.5, 3 h time point post dosing. All values will be expressed as mean±S.E.M. The significance of the differences among groups will be evaluated by two-way ANOVA followed by Dunnett's test using graphpad Prism 6 software. A p value of less than 0.05 is considered statistically significant.

[1] = tested on: Mecp2, Shank3, and Fmr1 mutant mice; test: animal models of ASD; type: in vivo; conditions: three animal models of ASD (Mecp2, Shank3, and Fmr1 mutant mice)
From the text: These findings raise the exciting possibility that GABAA receptor agonists, which attenuate the activity of peripheral mechanosensory neurons, may be useful for treating tactile hypersensitivity and thus anxiety and social impairments in ASD patients. Treating young children with GABAA receptor agonists has traditionally been avoided because of undesirable side effects of these drugs in children. Indeed, there is great reluctance on the part of physicians to use FDA-approved GABAA receptor agonists and positive allosteric modulators because of undesirable side effects, including sedation, and serious complications associated with interference with brain development. […] Importantly, peripherally-restricted GABAA receptor agonists should not promote undesirable side effects observed with all currently used, FDA-approved GABAA receptor agonists that act in the brain.

[2] = tested on: rodent models of neuropathic pain; test: rodent models of neuropathic pain; type: in vivo
From the text: The utility of peripherally-restricted GABAA receptor PAMs, agonists are not limited to treatment of the above indications; the compounds disclosed herein are also useful for treating touch over-reactivity and pain associated with other disease states, including Sensory Processing Disorder (SPD) and fibromyalgia, as well as mechanical allodynia associated with nerve injury, shingles, diabetic neuropathy, chemotherapy-induced neuropathy and other neuropathic pain states.

GABAA targets = conditions: previous study (US034-0003415); cited from earlier work

O=C(O)C1=CCNCC1 [Isoguvacine]
(%) Control mean (hGABAA α2β3γ2; 0.001 μM + EC20 GABA): 95.4 % Control
(%) Control n1 (hGABAA α2β3γ2; 0.001 μM + EC20 GABA): 94.5 % Control
(%) Control n2 (hGABAA α2β3γ2; 0.001 μM + EC20 GABA): 96.3 % Control
(%) Control mean (hGABAA α2β3γ2; 0.01 μM + EC20 GABA): 93.2 % Control
(%) Control n1 (hGABAA α2β3γ2; 0.01 μM + EC20 GABA): 90.4 % Control
(%) Control n2 (hGABAA α2β3γ2; 0.01 μM + EC20 GABA): 96.0 % Control
(%) Control mean (hGABAA α2β3γ2; 0.1 μM + EC20 GABA): 88.9 % Control
(%) Control n1 (hGABAA α2β3γ2; 0.1 μM + EC20 GABA): 85.9 % Control
(%) Control n2 (hGABAA α2β3γ2; 0.1 μM + EC20 GABA): 91.8 % Control
(%) Control mean (hGABAA α2β3γ2; 1 μM + EC20 GABA): 92.3 % Control
(%) Control n1 (hGABAA α2β3γ2; 1 μM + EC20 GABA): 95.4 % Control
(%) Control n2 (hGABAA α2β3γ2; 1 μM + EC20 GABA): 89.3 % Control
(%) Control mean (hGABAA α2β3γ2; 10 μM + EC20 GABA): 45.7 % Control
(%) Control n1 (hGABAA α2β3γ2; 10 μM + EC20 GABA): 55.0 % Control
(%) Control n2 (hGABAA α2β3γ2; 10 μM + EC20 GABA): 36.4 % Control
(%) Control mean (hGABAA α2β3γ2; 100 μM + EC20 GABA): 6.9 % Control
(%) Control n1 (hGABAA α2β3γ2; 100 μM + EC20 GABA): 8.4 % Control
(%) Control n2 (hGABAA α2β3γ2; 100 μM + EC20 GABA): 5.3 % Control
Mean Maximal Effect (% of Control) (hGABAA α2β3γ2; normalized to baseline peak current induced by EC20 GABA (0.8 μM) for 2 seconds): 95 % of Control
Estimated EC50 (hGABAA α2β3γ2; positive modulation of EC20 GABA current): n/c*
Normalized Percentage Activation Mean (hGABAA α1β3γ2; 0.3 μM): 1.61%
Normalized Percentage Activation Mean (hGABAA α1β3γ2; 1 μM): 2.18%
Normalized Percentage Activation Mean (hGABAA α1β3γ2; 3 μM): 6.83%
Normalized Percentage Activation Mean (hGABAA α1β3γ2; 10 μM): 30.46%
Normalized Percentage Activation Mean (hGABAA α1β3γ2; 30 μM): 65.63%
Normalized Percentage Activation Mean (hGABAA α1β3γ2; 100 μM): 84.77%
Normalized Percentage Activation Mean (hGABAA α1β3γ2; 300 μM): 92.72%
Normalized Percentage Activation Mean (hGABAA α1β3γ2; 10000 μM): 93.46%
EC50 (hGABAA α1β3γ2; agonist activation of channel currents, read-out: Estimated EC50): 19.7 µM
Von frey test 50% g Threshold, group mean (SNL rats; 0 Hour (pre-dose baseline), 5 mg/kg): 2.32 g and 2.3 ± 0.33 g
50% g Threshold, individual animal (SNL rats; 0 Hour (pre-dose baseline, day 9 post surgery), 5 mg/kg): 0.99 g and 1.10 g and 1.85 g and 2.23 g and 2.81 g and 3.00 g and 3.31 g (2×)
50% g Threshold, individual animal (SNL rats; 0.75 Hour post dosing, 5 mg/kg): 1.31 g (2×) and 2.37 g (2×) and 2.81 g and 1.56 g (2×) and 0.99 g
Von frey test 50% g Threshold, group mean (SNL rats; 0.75 Hour, 5 mg/kg): 1.78 g and 1.8 ± 0.23 g
50% g Threshold, individual animal (SNL rats; 1.5 Hour post dosing, 5 mg/kg): 1.85 g (3×) and 2.37 g and 0.82 g and 2.81 g and 1.56 g and 2.64 g
Von frey test 50% g Threshold, group mean (SNL rats; 1.5 Hour, 5 mg/kg): 1.97 g and 2.0 ± 0.23 g
50% g Threshold, individual animal (SNL rats; 3 Hour post dosing, 5 mg/kg): 2.81 g and 6.74 g and 7.91 g and 3.33 g and 5.15 g and 4.34 g and 5.77 g and 3.31 g
Von frey test 50% g Threshold, group mean (SNL rats; 3 Hour): 4.9 ± 0.64 g
analgesia effect (SNL rats; 3 hour time point): significant analgesia effect
effect on tactile hypersensitivity, anxiety-like behaviors and social impairments [1]: improves tactile hypersensitivity, anxiety-like behaviors and social impairments
effect on tactile over-reactivity (mechanical allodynia) [2]: reduces tactile over-reactivity (mechanical allodynia)
agonist activity against GABAA targets (GABAA targets): exhibited agonist activity
